Reference: ChEMBL document CHEMBL5260828, “Amphiphilic glycoconjugates as potential anti-cancer chemotherapeutics” (Eur J Med Chem, 2018)
Converted amounts (≈) assume the structure as drawn. Each block holds one molecule with its values, some of them ahead of it.

Assays:
[1] = system: MDA-MB-435; experiment: Inhibition of cell migration in human MDA-MB-435 cells incubated for 24 hrs by hematoxylin staining based assay; type: functional; details: MDA-MB-435, 24 h
[2] = system: HEp-2; experiment: Cytotoxicity against human HEp-2 cells assessed as cell growth inhibition by measuring effective dose; type: functional; details: read-out: ED50 (the source's name)
[3] = system: MDA-MB-231; experiment: Cytotoxicity against human MDA-MB-231 cells assessed as cell growth inhibition by alamar blue assay; type: functional, cell-based
[4] = system: MCF-10A; experiment: Cytotoxicity against human MCF-10A cells assessed as cell growth inhibition by alamar blue assay; type: functional, cell-based
[5] = system: Jurkat; experiment: Cytotoxicity against human Jurkat cells assessed as cell growth inhibition by alamar blue assay; type: functional, cell-based
[6] = system: U-937; experiment: Cytotoxicity against human U-937 cells assessed as cell growth inhibition by alamar blue assay; type: functional, cell-based
[7] = system: MCF7; experiment: Cytotoxicity against human MCF7 cells assessed as cell growth inhibition by MTT assay; type: functional, cell-based
[8] = system: HeLa; experiment: Cytotoxicity against human HeLa cells assessed as cell growth inhibition by alamar blue assay; type: functional, cell-based
[9] = Cytotoxicity against human HEK293F cells; type: toxicity, cell-based
[10] = system: MKN-45; experiment: Cytotoxicity against human MKN-45 cells; type: functional, cell-based
[11] = system: ACHN; experiment: Cytotoxicity against human ACHN cells; type: functional, cell-based
[12] = system: HCT-15; experiment: Cytotoxicity against human HCT-15 cells assessed as inhibition of cell growth by measuring its effective dose; type: functional; details: read-out: ED50 (the source's name)
[13] = system: SK-MEL-2; experiment: Cytotoxicity against human SK-MEL-2 cells assessed as inhibition of cell growth by measuring its effective dose; type: functional; details: read-out: ED50 (the source's name)
[14] = system: A549; experiment: Cytotoxicity against human A549 cells assessed as inhibition of cell growth by measuring its effective dose; type: functional; details: read-out: ED50 (the source's name)
[15] = system: SK-OV-3; experiment: Cytotoxicity against human SK-OV-3 cells assessed as inhibition of cell growth by measuring its effective dose; type: functional; details: read-out: ED50 (the source's name)
[16] = system: XF498; experiment: Cytotoxicity against human XF498 cells assessed as inhibition of cell growth by measuring its effective dose; type: functional; details: read-out: ED50 (the source's name)
[17] = system: K562; experiment: Cytotoxicity against human K562 cells by MTT assay; type: functional, cell-based
[18] = system: KB; experiment: Cytotoxicity against human KB cells by MTT assay; type: functional, cell-based
[19] = system: A549; experiment: Cytotoxicity against human A549 cells assessed as cell growth inhibition incubated for 24 hrs by MTT assay; type: functional, cell-based; details: A549, 24 h
[20] = system: Col2; experiment: Cytotoxicity against human Col2 cells assessed as cell growth inhibition incubated for 24 hrs by MTT assay; type: functional, cell-based; details: Col2, 24 h
[21] = system: MDA-MB-231; experiment: Cytotoxicity against human MDA-MB-231 cells assessed as cell growth inhibition incubated for 24 hrs by MTT assay; type: functional, cell-based; details: MDA-MB-231, 24 h
[22] = system: KB; experiment: Cytotoxicity against human KB cells assessed as cell growth inhibition incubated for 24 hrs by MTT assay; type: functional, cell-based
[23] = system: K562; experiment: Cytotoxicity against human K562 cells assessed as cell growth inhibition incubated for 24 hrs by MTT assay; type: functional, cell-based; details: K562, 24 h
[24] = system: K562; experiment: Antiproliferative activity against human K562 cells assessed as reduction in cell viability incubated for 48 hrs by CCK-8 assay; type: functional, cell-based; details: K562, 48 h
[25] = system: P388; experiment: Cytotoxicity against mouse P388 cells; type: functional, cell-based; details: Mus musculus, P388; read-out: IC50
[26] = system: L1210; experiment: Cytotoxicity against mouse L1210 cells; type: functional, cell-based
[27] = system: T-24; experiment: Cytotoxicity against human T24 cells assessed as cell viability; type: functional
[28] = system: ACHN; experiment: Cytotoxicity against human ACHN cells assessed as cell viability; type: functional

Compound: CCCCCCCCCCCCCCCCOCC(COC1O[C@H](CO)[C@@H](O[C@@H]2O[C@H](CO)[C@H](O)[C@H](O)[C@H]2O)[C@H](O)[C@H]1O)OC (stereo not given in full)
IC50 [1]: 300 nM

Compound: CCCCCCCCCCCC(=O)O[C@@H]1[C@@H](O)[C@@H](OC(=O)/C=C/c2ccccc2)[C@H](O[C@@H]2[C@@H](O[C@@H]3O[C@@H](C)[C@H](O)[C@@H](O)[C@H]3O)[C@@H](OC(=O)C(C)C)[C@H](O[C@@H]3[C@@H](O)[C@H]4OC(=O)CCCCCCCCC[C@@H](CCCCC)O[C@@H]5O[C@H](C)[C@@H](O)[C@H](O)[C@H]5O[C@@H]4O[C@H]3C)O[C@H]2C)O[C@H]1C
EC50 [2]: 2 µg/mL (≈ 1.46 µM)

Compound: C/C=C(\C)C(=O)O[C@@H]1[C@@H](O)[C@@H]2O[C@H]3[C@H](O[C@@H](CCCCC)CCCCCCCCCC(=O)OC[C@@H](O2)[C@H]1OC(=O)/C=C/c1ccccc1)O[C@H](C)[C@H](OC(C)=O)[C@@H]3O
IC50 [3]: 16.1 nM
IC50 [4]: 30.7 nM
IC50 [5]: 9.7 nM
IC50 [6]: 11.1 nM
IC50 [7]: 33 nM
IC50 [8]: 14.9 nM

Compound: CCCCCCCC(=O)O[C@H]1[C@H](OC[C@@H](O)[C@@H](O)[C@H](O)CO)O[C@H](COC(=O)CCCCC)[C@@H](OC(=O)CCCCC)[C@@H]1OC(=O)CCCCC
IC50 [9]: 8900 nM
IC50 [10]: 7500 nM
IC50 [11]: 6800 nM

Compound: CCCCCCCCCCCCCCCCOC[C@H](O)COC1[C@@H](O)[C@H](O)[C@@H](O)[C@@H]1O
EC50 [12]: 4.3 µg/mL (≈ 9.58 µM)
EC50 [13]: 4.3 µg/mL (≈ 9.58 µM)
EC50 [14]: 4.3 µg/mL (≈ 9.58 µM)
EC50 [15]: 4.3 µg/mL (≈ 9.58 µM)
EC50 [16]: 4.3 µg/mL (≈ 9.58 µM)

Compound: C/C=C(\C)[C@H](O)[C@H](C)/C=C/C=C/C/C(C)=C/Cc1nc(OC)c(OC)c(OC2O[C@@H](C)[C@H](O)[C@@H](O)[C@H]2O)c1C (stereo not given in full)
IC50 [17]: 2.9 µg/mL (≈ 5.29 µM)
IC50 [18]: 4.5 µg/mL (≈ 8.22 µM)

Compound: CCCCCCCCO[C@@H]1O[C@@H](C)[C@H](OC(=O)CCCCC)[C@@H](O[C@@H]2O[C@@H](C)[C@H](OC(C)=O)[C@@H](O[C@@H]3O[C@@H](C)[C@H](OC(C)=O)[C@@H](O[C@@H]4O[C@@H](C)[C@H](O)[C@@H](O)[C@H]4OC(C)=O)[C@H]3OC(C)=O)[C@H]2OC(C)=O)[C@H]1O
IC50 [19]: 700 nM
IC50 [20]: 700 nM
IC50 [21]: 700 nM
IC50 [22]: 700 nM
IC50 [23]: 700 nM

IC50 [24]: 19800 nM
Compound: CCCCCCCCCCN1C[C@H](NC(C)=O)[C@@H](O)[C@H](O)C1=O

Compound: CO[C@@H]1[C@H](O[C@@H]2CO[C@@H](O[C@@H]3[C@@H](O)[C@H](O)CO[C@H]3N3C(=O)/C(=C(O)/C=C/C=C/C=C/C=C/C=C(Cl)/C=C(\C)Cl)C(=O)[C@@H]3CC(N)=O)[C@@H](O)[C@@H]2O)O[C@H](C)[C@H]1O [AURANTOSIDE A]
IC50 [25]: 1.8 µg/mL (≈ 2.2 µM)
IC50 [26]: 3.4 µg/mL (≈ 4.16 µM)

Compound: C\C(Cl)=C/C(Cl)=C/C=C/C=C/C=C/C=C/C(O)=C1\C(=O)[C@H](CC(N)=O)N([C@@H]2OC[C@@H](O)[C@H](O)[C@H]2O[C@@H]2OC[C@@H](O[C@@H]3O[C@H](C)[C@@H](O)[C@@H]3O)[C@@H](O)[C@@H]2O)C1=O [AURANTOSIDE B]
IC50 [25]: 3.2 µg/mL (≈ 3.98 µM)
IC50 [26]: 3.3 µg/mL (≈ 4.11 µM)

Compound: COc1cccc2c1C(=O)c1c(O)c3c(c(O)c1C2=O)C[C@@](O)(C(=O)CO)C[C@@H]3O[C@H]1C[C@H](N)[C@H](O)[C@H](C)O1 [DOXORUBICIN]
Activity [27]: 79%

Compound: CC(=O)O[C@H]1C(=O)[C@@]2(C)[C@H]([C@H](OC(=O)c3ccccc3)[C@]3(O)C[C@H](OC(=O)[C@H](O)[C@@H](NC(=O)c4ccccc4)c4ccccc4)C(C)=C1C3(C)C)[C@]1(OC(C)=O)CO[C@@H]1C[C@@H]2O [PACLITAXEL]
Activity [28]: 65.8%
